Source: BindingDB's records for doi:10.1016/j.bmcl.2005.12.040 (Celera, 2006)

Biological target: T1, Coagulation factor VII (Homo sapiens, UniProt P08709)
T1 sequence (P08709 whole entry): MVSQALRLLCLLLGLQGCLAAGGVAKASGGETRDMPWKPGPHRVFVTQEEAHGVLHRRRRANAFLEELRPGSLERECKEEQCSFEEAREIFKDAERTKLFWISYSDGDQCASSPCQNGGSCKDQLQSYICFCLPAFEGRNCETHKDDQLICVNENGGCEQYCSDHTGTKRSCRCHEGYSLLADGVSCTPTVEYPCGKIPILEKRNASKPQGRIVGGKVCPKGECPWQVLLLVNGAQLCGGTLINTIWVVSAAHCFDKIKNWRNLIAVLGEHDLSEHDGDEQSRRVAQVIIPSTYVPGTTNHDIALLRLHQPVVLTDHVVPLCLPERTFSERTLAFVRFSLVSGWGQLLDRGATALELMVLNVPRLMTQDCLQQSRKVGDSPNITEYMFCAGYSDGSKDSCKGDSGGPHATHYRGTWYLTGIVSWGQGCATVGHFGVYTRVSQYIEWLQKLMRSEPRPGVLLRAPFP
Assay: Enzyme Inhibition Assay
Procedure: The enzyme reactions were initiated by the addition of substrate, and the color developed from the release of p-nitroanilide from each chromogenic substrate was monitored at 405 nm using a Thermomax kinetic plate reader (Molecular Devices). […] The apparent Ki values were then calculated according to the Cheng-Prusoff equation: Ki = IC50/1 + [S]/Km.

Row | SMILES | Ki
1 | CSc1ccccc1-c1cc(C(CC(=O)O)C(=O)O)cc(-c2nc3ccc(C(=N)N)cc3[nH]2)c1O (stereo not given) [2-[3-(5-carbamimidoyl-1H-1,3-benzodiazol-2-yl)-4-hydroxy-5-[2-(methylsulfanyl)phenyl]phenyl]butanedioic acid] | 0.064 µM
2 | N=C(N)c1ccc2nc(-c3cc(C(CC(=O)O)C(=O)O)cc(-c4cccc(C5CCOC(=O)O5)c4)c3O)[nH]c2c1 (stereo not given) [2-[3-(5-carbamimidoyl-1H-1,3-benzodiazol-2-yl)-4-hydroxy-5-[3-(2-oxo-1,3-dioxan-4-yl)phenyl]phenyl]butanedioic acid] | 0.28 µM
3 | CC(=O)N(c1cccc(C)c1)c1cc(C(CC(=O)O)C(=O)O)cc(-c2nc3ccc(C(=N)N)cc3[nH]2)c1O (stereo not given) [2-[3-(5-carbamimidoyl-1H-1,3-benzodiazol-2-yl)-4-hydroxy-5-[N-(3-methylphenyl)acetamido]phenyl]butanedioic acid] | 0.054 µM

Further lines, results first:

Row | Ki | SMILES
4 | 0.13 µM | N=C(N)c1ccc2nc(-c3cc(C(CC(=O)O)C(=O)O)cc(-c4ccc(CO)s4)c3O)[nH]c2c1 (stereo not given) [2-[3-(5-carbamimidoyl-1H-1,3-benzodiazol-2-yl)-4-hydroxy-5-[5-(hydroxymethyl)thiophen-2-yl]phenyl]butanedioic acid]
5 | 0.11 µM | N=C(N)c1ccc2nc(-c3cc(C(CC(=O)O)C(=O)O)cc(-c4ccc(Cl)s4)c3O)[nH]c2c1 (stereo not given) [2-[3-(5-carbamimidoyl-1H-1,3-benzodiazol-2-yl)-5-(5-chlorothiophen-2-yl)-4-hydroxyphenyl]butanedioic acid]
